Results on 3 molecules are retold here after ChEMBL document CHEMBL1649565, “Besifloxacin, a novel fluoroquinolone, has broad-spectrum in vitro activity against aerobic and anaerobic bacteria” (Antimicrob Agents Chemother, 2009).

Values after ≈ are worked out from the molar mass of the structure shown. Active and inactive are the calls of the source. No cut-off for these calls is given here.

For orientation: MIC50 means an inhibitory concentration at the 50% level, which refers to growth in some studies and to a panel of isolates in others. Broadly, the MIC90 is an inhibitory concentration at the 90% level, which refers to growth in some studies and to a panel of isolates in others. A word on the MIC: it is the lowest concentration that inhibits growth of the organism. High values mean a less susceptible organism, low ones a more susceptible organism.

Test [1] has as its system Citrobacter freundii. The experiment in a line: Antibacterial activity against Citrobacter freundii by CLSI M7-A7 method. The format is functional.
Test [2] has as its system Pseudomonas aeruginosa. As to the kind of experiment: Antibacterial activity against ciprofloxacin-susceptible Pseudomonas aeruginosa by CLSI M7-A7 method. The test is classed as functional.
The subject of test [3] is Proteus vulgaris. The experiment in a line: Antibacterial activity against Proteus vulgaris assessed as percent susceptible isolates by CLSI M7-A7 method. The format is functional.
The subject of test [4] is Stenotrophomonas maltophilia. The experiment in a line: Antibacterial activity against levofloxacin-susceptible Stenotrophomonas maltophilia assessed as assessed as percent susceptible isolates by CLSI M7-A7 method. The format is functional.
The test system of test [5] is Stenotrophomonas maltophilia. As to the kind of experiment: Antibacterial activity against levofloxacin-susceptible Stenotrophomonas maltophilia by CLSI M7-A7 method. The test is classed as functional.
Test [6] relates to Pseudomonas aeruginosa. As to the kind of experiment: Antibacterial activity against non-ciprofloxacin-susceptible Pseudomonas aeruginosa by CLSI M7-A7 method. The format is functional.
Test [7] deals with Acinetobacter lwoffii. The experiment in a line: Antibacterial activity against Acinetobacter lwoffii assessed as percent susceptible isolates by CLSI M7-A7 method. The test is classed as functional.
Test [8] deals with Acinetobacter calcoaceticus. As to the kind of experiment: Antibacterial activity against Acinetobacter calcoaceticus by CLSI M7-A7 method. The test is classed as functional.
Test [9] concerns Enterobacter cloacae. As to the kind of experiment: Antibacterial activity against Enterobacter cloacae by CLSI M7-A7 method. The format is functional.
In test [10] the test system is Citrobacter freundii. The experiment in a line: Antibacterial activity against Citrobacter freundii assessed as percent susceptible isolates by CLSI M7-A7 method. The test is classed as functional.
Test [11] relates to Klebsiella aerogenes. The experiment in a line: Antibacterial activity against Enterobacter aerogenes assessed as percent susceptible isolates by CLSI M7-A7 method. The format is functional.
Test [12] deals with Acinetobacter baumannii. The experiment in a line: Antibacterial activity against Acinetobacter baumannii assessed as percent susceptible isolates by CLSI M7-A7 method. The test is classed as functional.
Test [13] relates to Stenotrophomonas maltophilia. The experiment in a line: Antibacterial activity against non-levofloxacin susceptible Stenotrophomonas maltophilia by CLSI M7-A7 method. The format is functional.
Test [14] has as its system Acinetobacter baumannii. As to the kind of experiment: Antibacterial activity against Acinetobacter baumannii by CLSI M7-A7 method. The format is functional.
The subject of test [15] is Acinetobacter calcoaceticus. As to the kind of experiment: Antibacterial activity against Acinetobacter calcoaceticus assessed as percent susceptible isolates by CLSI M7-A7 method. The format is functional.
Test [16] relates to Pseudomonas aeruginosa. As to the kind of experiment: Antibacterial activity against ciprofloxacin-susceptible Pseudomonas aeruginosa assessed as percent susceptible isolates by CLSI M7-A7 method. The format is functional.
Test [17] relates to Proteus mirabilis. As to the kind of experiment: Antibacterial activity against Proteus mirabilis assessed as percent susceptible isolates by CLSI M7-A7 method. The test is classed as functional.
The subject of test [18] is Serratia marcescens. As to the kind of experiment: Antibacterial activity against levofloxacin susceptible Serratia marcescens assessed as percent susceptible isolates by CLSI M7-A7 method. The format is functional.
In test [19] the test system is Proteus vulgaris. As to the kind of experiment: Antibacterial activity against Proteus vulgaris by CLSI M7-A7 method. The format is functional.
Test [20] has as its system Klebsiella pneumoniae. As to the kind of experiment: Antibacterial activity against Klebsiella pneumoniae assessed as percent susceptible isolates by CLSI M7-A7 method. The test is classed as functional.
The test system of test [21] is Klebsiella aerogenes. As to the kind of experiment: Antibacterial activity against Enterobacter aerogenes by CLSI M7-A7 method. The format is functional.
Test [22] has as its system Serratia marcescens. As to the kind of experiment: Antibacterial activity against Serratia marcescens by CLSI M7-A7 method. The format is functional.
For test [23], the system named is Enterobacter cloacae. The experiment in a line: Antibacterial activity against Enterobacter cloacae assessed as percent susceptible isolates by CLSI M7-A7 method. The test is classed as functional.
Test [24] concerns Proteus mirabilis. As to the kind of experiment: Antibacterial activity against Proteus mirabilis by CLSI M7-A7 method. The test is classed as functional.
The test system of test [25] is Acinetobacter lwoffii. As to the kind of experiment: Antibacterial activity against Acinetobacter lwoffii by CLSI M7-A7 method. The format is functional.
The subject of test [26] is Stenotrophomonas maltophilia. The experiment in a line: Antibacterial activity against non-levofloxacin susceptible Stenotrophomonas maltophilia assessed as percent susceptible isolates by CLSI M7-A7 method. The test is classed as functional.
Test [27] deals with Klebsiella pneumoniae. The experiment in a line: Antibacterial activity against Klebsiella pneumoniae by CLSI M7-A7 method. The test is classed as functional.
For test [28], the system named is Pseudomonas aeruginosa. As to the kind of experiment: Antibacterial activity against non-ciprofloxacin-susceptible Pseudomonas aeruginosa assessed as percent susceptible isolates by CLSI M7-A7 method. The test is classed as functional.
The subject of test [29] is Fusobacterium sp. As to the kind of experiment: Antibacterial activity against Fusobacterium sp. assessed as percent susceptible isolates by CLSI M11-A7 method. The test is classed as functional.
For test [30], the system named is Bacteroides fragilis. As to the kind of experiment: Antibacterial activity against Bacteroides fragilis by CLSI M11-A7 method. The test is classed as functional.
The test system of test [31] is Peptostreptococcus sp. As to the kind of experiment: Antibacterial activity against Peptostreptococcus sp. assessed as percent susceptible isolates by CLSI M11-A7 method. The test is classed as functional.
Test [32] has as its system Peptostreptococcus sp. As to the kind of experiment: Antibacterial activity against Peptostreptococcus sp. by CLSI M11-A7 method. The format is functional.
The next test relates to Clostridium perfringens. The experiment in a line: Antibacterial activity against Clostridium perfringens by CLSI M11-A7 method. The test is classed as functional.
For test [33], the system named is Cutibacterium acnes. The experiment in a line: Antibacterial activity against Propionibacterium acnes assessed as percent susceptible isolates by CLSI M11-A7 method. The format is functional.
Test [34] relates to Fusobacterium sp. As to the kind of experiment: Antibacterial activity against Fusobacterium sp. by CLSI M11-A7 method. The format is functional.
Test [35] relates to Prevotella sp. As to the kind of experiment: Antibacterial activity against Prevotella sp. assessed as percent susceptible isolates by CLSI M11-A7 method. The format is functional.
In test [36] the test system is Prevotella sp. As to the kind of experiment: Antibacterial activity against Prevotella sp. by CLSI M11-A7 method. The format is functional.
In test [37] the test system is Cutibacterium acnes. As to the kind of experiment: Antibacterial activity against Propionibacterium acnes by CLSI M11-A7 method. The format is functional.
Test [38] has as its system Bacteroides fragilis. As to the kind of experiment: Antibacterial activity against Bacteroides fragilis assessed as percent susceptible isolates by CLSI M11-A7 method. The format is functional.
Test [39] has as its system Staphylococcus epidermidis.
Test [40] concerns Staphylococcus epidermidis. This is another data set of the same source.

Take `C[C@@H](O)[C@H]1C(=O)N2C(C(=O)O)=C(SCCNC=N)C[C@H]12` [IMIPENEM ANHYDROUS]: the MIC50 is 0.5 mg/L (≈ 1.67 µM) against Citrobacter freundii [1]; 0.5 mg/L (≈ 1.67 µM) in the test with Pseudomonas aeruginosa [2]; 1 mg/L (≈ 3.34 µM) against Pseudomonas aeruginosa [6]; 1 mg/L (≈ 3.34 µM) in test [8]; 0.5 mg/L (≈ 1.67 µM) against Enterobacter cloacae [9]; 2 mg/L (≈ 6.68 µM) against Acinetobacter baumannii [14]. Moreover, the MIC50 in the test on Proteus vulgaris [19] turned out to be 1 mg/L (≈ 3.34 µM); in the test on Klebsiella aerogenes [21] it was 0.5 mg/L (≈ 1.67 µM); against Serratia marcescens [22], 2 mg/L (≈ 6.68 µM); against Proteus mirabilis [24], 1 mg/L (≈ 3.34 µM); against Acinetobacter lwoffii [25] it was 0.25 mg/L (≈ 0.835 µM); against Klebsiella pneumoniae [27] it was 0.25 mg/L (≈ 0.835 µM). Besides, the MIC90 with Citrobacter freundii [1] was 8 mg/L (≈ 26.7 µM); with Pseudomonas aeruginosa [2] it was 1 mg/L (≈ 3.34 µM); against Pseudomonas aeruginosa [6], greater than 64 mg/L; in test [8] it was greater than 64 mg/L; in the test with Enterobacter cloacae [9] it was 8 mg/L (≈ 26.7 µM); against Acinetobacter baumannii [14] it was greater than 8 mg/L. The MIC90 with Proteus vulgaris [19] amounted to 2 mg/L (≈ 6.68 µM); against Klebsiella aerogenes [21], 1 mg/L (≈ 3.34 µM); in the test on Serratia marcescens [22], 4 mg/L (≈ 13.4 µM); against Proteus mirabilis [24] it was 2 mg/L (≈ 6.68 µM); with Acinetobacter lwoffii [25], 8 mg/L (≈ 26.7 µM); in the test with Klebsiella pneumoniae [27], 0.5 mg/L (≈ 1.67 µM). Further, the Activity with Proteus vulgaris [3] is given as 98%; in test [4] it was 38.5%; in the test with Acinetobacter lwoffii [7] it was 86%; with Citrobacter freundii [10] it was 87%; with Klebsiella aerogenes [11], 88%; with Acinetobacter baumannii [12], 54.7%. Further, the Activity is given as 77.8% in test [15]; 97.1% in the test on Pseudomonas aeruginosa [16]; 92% with Proteus mirabilis [17]; 91% in the test on Serratia marcescens [18]; 93% with Klebsiella pneumoniae [20]; 88% in the test on Enterobacter cloacae [23]. Besides, the Activity in test [26] is on record as 22.9%; with Pseudomonas aeruginosa [28] it was 64.6%. In addition, the values for the minimal inhibitory concentration (MIC) in test [5] and in test [13] were 0.25 mg/L (≈ 0.835 µM) and 1 mg/L (≈ 3.34 µM), respectively.

For the molecule `CCC[C@@H]1C[C@@H](C(=O)N[C@@H]([C@H]2O[C@H](SC)[C@H](O)[C@@H](O)[C@H]2O)[C@H](C)Cl)N(C)C1` [CLINDAMYCIN], the Activity in the test on Fusobacterium sp. [29] came out at 95.2%; with Peptostreptococcus sp. [31] it was 88.5%; in the test on Cutibacterium acnes [33], 100%; in the test with Prevotella sp. [35] it was 85%; with Bacteroides fragilis [38] it was 65%. Further, the MIC50 against Bacteroides fragilis [30] was 2 mg/L (≈ 4.71 µM); in the test on Peptostreptococcus sp. [32], 0.25 mg/L (≈ 0.588 µM); against Clostridium perfringens, 2 mg/L (≈ 4.71 µM); in the test with Fusobacterium sp. [34] it was 0.06 mg/L (≈ 0.141 µM); in the test with Prevotella sp. [36] it was no more than 0.03 mg/L; against Cutibacterium acnes [37], 0.06 mg/L (≈ 0.141 µM). Besides, the MIC90 with Bacteroides fragilis [30] was greater than 8 mg/L; in the test on Peptostreptococcus sp. [32], greater than 8 mg/L; in the test on Clostridium perfringens it was 4 mg/L (≈ 9.41 µM); against Fusobacterium sp. [34], 2 mg/L (≈ 4.71 µM); against Prevotella sp. [36], greater than 8 mg/L; in the test on Cutibacterium acnes [37] it was 0.12 mg/L (≈ 0.282 µM). The MIC is 0.06 mg/L (≈ 0.141 µM) in the test on Fusobacterium sp. [34] and no more than 0.03 mg/L in the test with Prevotella sp. [36].

Turning to `O=C(O)c1cn(C2CC2)c2cc(N3CCNCC3)c(F)cc2c1=O`, the MIC90 result in test [39] and in test [40] was “inactive” throughout.
